Experiments:
[1] = system: LDLR protein levels in HepG2 cells; test: Western blot analysis of relative LDLR protein levels in HepG2 cells after treatment; format: cell-based, human; conditions: HepG2 cells incubated overnight with compound, 0.2 μM to 20 μM
Experimental: Cell culture, treatments and cell viability assay. For phenotypic screening of PCSK9 modulators and/or LDLR small molecule inducers, human HepG2 cells were incubated overnight in conditioned media containing chemical compounds resuspended in DMSO at concentration ranging from 0.2 μM to 20 μM. […] Following incubation, media have been replaced and cells incubated for 4 h with 100 μL of phenol red-free DMEM containing 0.5 mg/mL of MTT (3-[4,5-dimethylthiazol-2-yl]-2,5-diphenyltetrazolium bromide; thiazolyl blue; catalog no. M5655, Sigma-Aldrich), following manufacturer's instructions.
Western Blot Analysis, Immunocytochemistry and LDLR Activity Assay. Following incubation, cells were washed three times in phosphate-buffered saline (PBS) and lysed in radioimmune precipitation assay buffer (50 mM Tris/HCl, pH 8.0, 1% (v/v) Nonidet P-40, 0.5% sodium deoxycholate, 150 mM NaCl, and 0.1% (v/v) SDS) supplemented with a complete protease inhibitor mixture (catalog no. 11 697 498 001, Roche Applied Science). Proteins were separated by SDS polyacrylamide gel electrophoresis, blotted on nitrocellulose membranes (Bio-Rad), blocked incubated with indicated antibodies as described (Poirier S, et al., Cell Rep, 2015). For immunocytochemistry analysis, cells were permeabilized or not with 0.1% Triton X-100/PBS for 10 min, and incubated with 150 mM glycine, blocked and incubated with indicated primary and secondary antibodies. Immunofluorescence analyses were performed with an Olympus FluoView FV10i confocal microscope (Poirier et al., Cell Rep. 2015; 13(10):2064-2071). For LDLR activity assay, HepG2 cells were incubated overnight without or with a given compound in the presence of 5 μg/ml fluorescent labelled DiI-LDL (Alfa Aesar, Cat. #J65330) and co-stained for LDLR if applicable, as described (Poirier et al., J Biol Chem. 2009; 284(42):28856-28864). Immunofluorescence analyses were performed with an Olympus FluoView FV10i confocal microscope.

Biotinylated PCSK9 = Biotinylated PCSK9 (Homo sapiens (Human), UniProt Q8NBP7); test: Binding affinity of SHIM compounds to PCSK9 by surface plasmon resonance spectroscopy (Biacore T200); conditions: SPR, range tested 0.5-10 uM, 1:1 Langmuir model, NB = no binding detected in the tested range; for Kd: read-out: KD - equilibrium dissociation constant; for kon: read-out: ka - association rate constant; for koff: read-out: kd - dissociation rate constant
Experimental: Studies of SHIM compounds—PCSK9 interactions. […] Biotinylated PCSK9 (ACRO Biosystems) at 1 μg/mL has been captured on a chip on which streptavidin has been immobilized with amine-directed chemistry according to the manufacturer's instructions (6000 RU) to a density of 6000 RU in PBS-P ([…], 0.005% Tween 20, pH7.4) buffer with 1% DMSO. SHIMs at 10, 3.3, 1.1, 0.33 and 0.11 uM were injected at 30 uL/min. […] Double reference method of analysis was used with the reference channel containing a reference biotinylated protein captured at 6000 RU.

[2] = system: hypercholesterolemic C57BL/6 Pcsk9 KO mice; test: Efficacy and safety in hypercholesterolemic C57BL/6 Pcsk9 KO mice on Western diet, oral gavage; format: in vivo; conditions: 40 mg/kg/day oral gavage for 10 days
Description: Animal studies. All animal studies were approved by the Montreal Heart Institute (MHI) Animal Care and Ethical committee. For in vivo proof-of-concept animal studies, wild-type C57BL/6 or Pcsk9 knockout male mice were fed on Western diet containing 48.5% w/w carbohydrate, 21.2% w/w fat, 17.3% w/w protein and 0.2% w/w cholesterol (catalog no. TD.88137, Envigo) for 14 days. Chemical compounds were mixed in DMSO/propylene glycol/water; 1:7:2 (v/v) and administered by oral gavage at 0 (vehicle) or 40 mg/kg/day for 10 days in mice on Western diet. Plasma lipoprotein cholesterol profiles were obtained from 100 μL of pooled plasma injected on a Superose 6 10/300 GL (catalog no. 17-5172-01, GE Life Sciences) and eluted with PBS at a flow rate of 0.1 mL per min at 4° C. mounted on a AKTA explorer system (GE Healthcare). Serum aspartate aminotransferase (AST), alanine transaminase (ALT), insulin, glucose and complete hematology tests were measured by the Montreal Heart Institute biochemical clinical chemistry platform according to manufacturer's recommendations.

Biotinylated PCSK9, sequence (Q8NBP7 153-692): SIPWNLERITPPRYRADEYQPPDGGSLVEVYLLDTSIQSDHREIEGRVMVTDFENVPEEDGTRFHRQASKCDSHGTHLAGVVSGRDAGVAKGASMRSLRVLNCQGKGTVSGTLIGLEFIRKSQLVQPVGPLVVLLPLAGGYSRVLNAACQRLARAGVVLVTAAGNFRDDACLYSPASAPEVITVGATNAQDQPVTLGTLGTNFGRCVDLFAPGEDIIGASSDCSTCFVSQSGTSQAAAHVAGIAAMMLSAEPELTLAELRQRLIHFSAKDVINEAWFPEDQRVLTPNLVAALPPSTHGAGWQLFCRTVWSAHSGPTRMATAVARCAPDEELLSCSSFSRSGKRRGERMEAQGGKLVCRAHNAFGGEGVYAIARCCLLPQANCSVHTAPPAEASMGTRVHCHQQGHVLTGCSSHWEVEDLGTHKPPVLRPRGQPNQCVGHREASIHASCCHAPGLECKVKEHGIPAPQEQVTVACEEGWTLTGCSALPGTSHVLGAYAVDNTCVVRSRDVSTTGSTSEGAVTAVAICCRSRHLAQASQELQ

| SMILES | LDLR Fold (relative LDLR protein levels) [1] | Kd (Biotinylated PCSK9) | kon (Biotinylated PCSK9) | koff (Biotinylated PCSK9) | also measured |
| --- | --- | --- | --- | --- | --- |
| C[C@@]1(c2ccc3ccccc3c2)NC(=O)N(CC(=O)N2CCC(C(=O)N3CCCCCC3)CC2)C1=O (stereo in doubt) [Compound 16, 3-{2-[4-(azepane-1-carbonyl)piperidin-1-yl]-2-oxoethyl}-5-methyl-5-(naphthalen-2-yl)imidazolidine-2,4-dione] | 2.1 ± 1.2 Fold | 3.88 µM | 22800 M⁻¹ s⁻¹ | 0.09 s⁻¹ |  |
| CC1(c2ccc3ccccc3c2)NC(=O)N(CC(=O)N2CCC(C(=O)Nc3ccccc3)CC2)C1=O (centres unmarked) [Compound 14, 1-[2-[4-methyl-4-(2-naphthyl)-2,5-dioxo-imidazolidin-1-yl]acetyl]-N-phenyl-piperidine-4-carboxamide] | 2.0 ± 0.7 Fold | 13.8 µM | 14500 M⁻¹ s⁻¹ | 0.19 s⁻¹ |  |
| O=C(c1csc(-c2cccs2)n1)N1CCc2c([nH]c3ccccc23)C1c1ccccn1 (stereo not drawn) [Compound 26, 1-(2-pyridinyl)-2-{[2-(2-thienyl)-1,3-thiazol-4-yl]carbonyl}-2,3,4,9-tetrahydro-1H-beta-carboline] | 1.9 ± 0.5 Fold | 11 µM | 104000 M⁻¹ s⁻¹ | 1.14 s⁻¹ | ALT [2]: 24 U/L; AST [2]: 67 U/L; Glucose [2]: 16.3 mmol/L; ΔBody Weight (D 10 − D 0) [2]: 99%; HDL-C ([2]; Western diet): 3.00 mmol/L; LDL-C (measured) ([2]; Western diet): 0.23 mmol/L; TC ([2]; Western diet): 3.03 mmol/L; TG ([2]; Western diet): 0.90 mmol/L; nonHDL-C ([2]; Western diet): 0.04 mmol/L; LDL-C (pooled plasma) (FPLC AUC) (Fold Change %) ([2]; pooled plasma FPLC): −61% |
| Cc1ccc(-c2nnc(N3CCN(C(=O)Cn4c(=O)n(C)c5ccccc54)CC3)c3ccccc23)cc1 [Compound 37, 1-methyl-3-(2-{4-[4-(4-methylphenyl)phthalazin-1-yl]piperazin-1-yl}-2-oxoethyl)-2,3-dihydro-1H-1,3-benzodiazol-2-one] | 1.0 Fold |  |  |  |  |
| O=C(CN1C(=O)c2ccccc2C1=O)N1CCN(c2nnc(-c3ccccc3)c3ccccc23)CC1 [Compound 38, 2-{2-oxo-2-[4-(4-phenylphthalazin-1-yl)piperazin-1-yl]ethyl}-2,3-dihydro-1H-isoindole-1,3-dione] | 0.9 Fold |  |  |  |  |
| Cc1ccc(-c2nnc(N3CCN(C(=O)c4ccco4)CC3)c3ccccc23)cc1 [Compound 39, 1-[4-(furan-2-carbonyl)piperazin-1-yl]-4-(4-methylphenyl)phthalazine] | 0.9 Fold |  |  |  |  |
| CC1CCN(CC(=O)N2CCN(c3nnc(-c4ccccc4)c4ccccc34)CC2)CC1 [Compound 40, 2-(4-methylpiperidin-1-yl)-1-[4-(4-phenylphthalazin-1-yl)piperazin-1-yl]ethan-1-one] | 0.9 Fold |  |  |  |  |
| c1ccc2c(N3CCN(Cc4ccc5c(c4)OCO5)CC3)nnc(Cc3ccncc3)c2c1 [Compound 41, 1-{4-[(2H-1,3-benzodioxol-5-yl)methyl]piperazin-1-yl}-4-[(pyridin-4-yl)methyl]phthalazine] | 0.7 Fold |  |  |  |  |
| O=C(CN1CCOCC1)N1CCN(c2nnc(-c3ccccc3)c3ccccc23)CC1 [Compound 43, 2-(morpholin-4-yl)-1-[4-(4-phenylphthalazin-1-yl)piperazin-1-yl]ethan-1-one] | 0.9 Fold |  |  |  |  |
| Cc1cc(C(=O)N2CCCC(C(=O)Nc3ccccc3)C2)c2ccccc2n1 (centres unmarked) [Compound 51, 1-(2-methylquinoline-4-carbonyl)-N-phenylpiperidine-3-carboxamide] | 1.2 Fold |  |  |  |  |

— patent US12419888B2, “Methods of treating elevated plasma cholesterol” (INSTITUT DE CARDIOLOGIE DE MONTREAL, priority 2020, dated 2025)
